{"source": "patent US20110166112A1", "about": "“METHOD FOR STIMULATING PLATELET PRODUCTION” (Eisai, Inc., priority 2009, published 2011)", "origin": "cited, not measured here", "tested_on": "subjects", "settings": "in eight days; cited from earlier work"}
{"compound": "CC1=NN(c2ccc(C)c(C)c2)C(=O)/C1=N\\Nc1cccc(-c2cccc(C(=O)O)c2)c1O.NCCO.NCCO", "note": "[Promacta®]", "values": [{"measurement": "subjects who achieved a platelet response of 50,000/mm^3", "result": "44-62%"}]}
